Source: publication PMC12133000 (PLOS One, 2025)
Where “and” joins values, the source holds several entries; their conditions need not be identical. Equal values may be shown once.

Experiment: Pharmacokinetics of rivaroxaban in rats after avitinib or gefitinib pretreatment
Type: in vivo, Sprague–Dawley (SD) rats
Set-up: AUC(0-∞): concentration or dose not given beside the values
Experimental: Eighteen male Sprague–Dawley (SD) rats weighing 300 ± 20 g were provided by the Experimental Animal Center of Wenzhou Medical University (Wenzhou, China) and kept under controlled conditions at a temperature of 23 ± 2 °C, relative humidity of 50 ± 10%, and 12 h light–dark cycle. Eighteen male SD rats were randomly assigned to three groups: avitinib, gefitinib, and control, with six rats per group. Prior to the experiment, the rats were not administered any other medications and fasted for 12 h. The experimental procedures and protocols adhered to Animal Ethics standards and were approved by the Animal Care and Use Committee of Wenzhou Medical University (approval no. wydw2019–650). All rats were anesthetized with sodium pentobarbital (40mg/kg, i.p) to relieve pain. The rats were killed through cervical dislocation.
Prior to the experiment in vivo, the six rats in the avitinib group were administered 30 mg/kg avitinib and 0.5% sodium carboxymethyl cellulose (CMC-Na) solution by gavage daily for 7 d. […] The supernatant was collected and stored at −80 °C. After thawing, 50 μL of plasma was extracted; 100 μL of acetonitrile solution containing midazolam (200 ng/mL) was then added to induce protein precipitation. After vortexing for 30 s and centrifuging at 13,000 rpm for 5 min, the […].
All assays were performed in triplicate, and the results are expressed as mean ± standard deviation. DAS software v. […] SPSS v. 25.0 (IBM, NY, USA) was used for data processing. Student’s t-tests were used to detect differences between groups. Differences with p < 0.05 were considered statistically significant.

[1] = avitinib group, single rats No1-No6, listed as 利伐沙班
[2] = gefitinib group, single rats No1-No6, listed as 利伐沙班

O=C(NC[C@H]1CN(c2ccc(N3CCOCC3=O)cc2)C(=O)O1)c1ccc(Cl)s1 [rivaroxaban, Rivaroxaban]
AUMC(0-t) (avitinib group, Mean): 34198 h*h*ug/L
AUMC(0-∞) (avitinib group, Mean): 40098.5 h*h*ug/L
MRT(0-∞) (avitinib group, Mean): 4.258 h
R_AUC(t/∞) (avitinib group, Mean): 96.35%
VRT(0-t) (avitinib group, Mean): 6.828 h^2
VRT(0-∞) (avitinib group, Mean): 12.881 h^2
Vz/F (avitinib group, Mean): 3.719 L/kg
AUC(0-t) [1]: 6.58183 µg·h/mL and 7.88862 µg·h/mL and 9.15191 µg·h/mL and 7.4174 µg·h/mL and 6.56088 µg·h/mL and 16.3723 µg·h/mL
AUC(0-∞) [1]: 6.85437 µg·h/mL and 9.13832 µg·h/mL and 9.1629 µg·h/mL and 7.4629 µg·h/mL and 6.60234 µg·h/mL and 16.8635 µg·h/mL
AUMC(0-t) [1]: 25199.7 h*h*ug/L and 32914.3 h*h*ug/L and 26176.1 h*h*ug/L and 34761 h*h*ug/L and 21050.6 h*h*ug/L and 65086.6 h*h*ug/L
AUMC(0-∞) [1]: 29578.1 h*h*ug/L and 55191.1 h*h*ug/L and 26325.9 h*h*ug/L and 35414.7 h*h*ug/L and 21638.6 h*h*ug/L and 72442.7 h*h*ug/L
CLz/F [1]: 1.459 L/h/kg and 1.094 L/h/kg and 1.091 L/h/kg and 1.34 L/h/kg and 1.515 L/h/kg and 0.593 L/h/kg
Cmax [1]: 1.4232 µg/mL and 1.5937 µg/mL and 2.3863 µg/mL and 1.1627 µg/mL and 1.5612 µg/mL and 2.7618 µg/mL
MRT(0-t) [1]: 4.172 h and 2.86 h and 4.686 h and 3.208 h and 3.975 h
MRT(0-∞) [1]: 4.315 h and 6.04 h and 4.745 h and 3.277 h and 4.296 h
R_AUC(t/∞) [1]: 96% and 86.3% and 99.9% and 99.4% (2×) and 97.1%
VRT(0-t) [1]: 8.179 h^2 and 9.654 h^2 and 3.358 h^2 and 8.878 h^2 and 4.734 h^2 and 6.165 h^2
VRT(0-∞) [1]: 14.228 h^2 and 34.982 h^2 and 3.496 h^2 and 9.426 h^2 and 5.486 h^2 and 9.666 h^2
Vz/F [1]: 5.931 L/kg and 6.375 L/kg and 1.763 L/kg and 3.171 L/kg and 3.308 L/kg and 1.765 L/kg
t1/2z [1]: 2.817 h and 4.037 h and 1.12 h and 1.64 h and 1.514 h and 2.062 h
λz [1]: 0.246 h⁻¹ and 0.172 h⁻¹ and 0.619 h⁻¹ and 0.423 h⁻¹ and 0.458 h⁻¹ and 0.336 h⁻¹
AUMC(0-t) (gefitinib group, Mean): 283625 h*h*ug/L
AUMC(0-∞) (gefitinib group, Mean): 684002 h*h*ug/L
R_AUC(t/∞) (gefitinib group, Mean): 79.633%
VRT(0-t) (gefitinib group, Mean): 8.14 h^2
VRT(0-∞) (gefitinib group, Mean): 63.366 h^2
AUC(0-t) [2]: 48.3965 µg·h/mL and 60.3926 µg·h/mL and 53.8965 µg·h/mL and 64.2149 µg·h/mL and 58.5694 µg·h/mL
AUC(0-∞) [2]: 54.3276 µg·h/mL and 62.6337 µg·h/mL and 64.8182 µg·h/mL and 71.9358 µg·h/mL and 93.7988 µg·h/mL
AUMC(0-t) [2]: 349046 h*h*ug/L and 247888 h*h*ug/L and 261964 h*h*ug/L and 270195 h*h*ug/L and 282576 h*h*ug/L and 290080 h*h*ug/L
AUMC(0-∞) [2]: 1493251 h*h*ug/L and 344803 h*h*ug/L and 295419 h*h*ug/L and 469845 h*h*ug/L and 411554 h*h*ug/L and 1089140 h*h*ug/L
Cmax [2]: 6.4302 µg/mL and 11.2597 µg/mL and 7.0154 µg/mL and 10.6417 µg/mL and 7.7341 µg/mL
MRT(0-t) [2]: 5.122 h and 4.338 h and 5.013 h and 4.4 h and 4.953 h
MRT(0-∞) [2]: 13.743 h and 6.347 h and 4.717 h and 7.249 h and 5.721 h and 11.611 h
R_AUC(t/∞) [2]: 57.4% and 89.1% and 96.4% and 83.2% and 89.3% and 62.4%
VRT(0-t) [2]: 10.639 h^2 and 8.135 h^2 and 6.361 h^2 and 8.635 h^2 and 7.676 h^2 and 7.393 h^2
VRT(0-∞) [2]: 164.942 h^2 and 21.543 h^2 and 10.309 h^2 and 38.485 h^2 and 23.734 h^2 and 121.182 h^2
Vz/F [2]: 1.173 L/kg and 0.799 L/kg and 0.467 L/kg and 0.969 L/kg and 0.654 L/kg and 1.139 L/kg
t1/2z [2]: 8.833 h and 3.008 h and 2.029 h and 4.352 h and 3.261 h and 7.402 h
λz [2]: 0.078 h⁻¹ and 0.23 h⁻¹ and 0.342 h⁻¹ and 0.159 h⁻¹ and 0.213 h⁻¹ and 0.094 h⁻¹
concentration at 5 min (male, Sprague-Dawley, rat, plasma, oral, 10 mg/kg, rivaroxaban ng/ml mean, control (rivaroxaban alone) group, mean of rats 13-18, time 0.0833): 0.158 µg/mL
concentration at 0.25 h (male, Sprague-Dawley, rat, plasma, oral, 10 mg/kg, rivaroxaban ng/ml mean, control (rivaroxaban alone) group, mean of rats 13-18, time 0.25): 0.259 µg/mL
concentration at 0.5 h (male, Sprague-Dawley, rat, plasma, oral, 10 mg/kg, rivaroxaban ng/ml mean, control (rivaroxaban alone) group, mean of rats 13-18, time 0.5): 0.397 µg/mL
concentration at 1 h (male, Sprague-Dawley, rat, plasma, oral, 10 mg/kg, rivaroxaban ng/ml mean, control (rivaroxaban alone) group, mean of rats 13-18, time 1): 0.435 µg/mL
concentration at 2 h (male, Sprague-Dawley, rat, plasma, oral, 10 mg/kg, rivaroxaban ng/ml mean, control (rivaroxaban alone) group, mean of rats 13-18, time 2): 0.337 µg/mL
concentration at 3 h (male, Sprague-Dawley, rat, plasma, oral, 10 mg/kg, rivaroxaban ng/ml mean, control (rivaroxaban alone) group, mean of rats 13-18, time 3): 0.291 µg/mL
concentration at 4 h (male, Sprague-Dawley, rat, plasma, oral, 10 mg/kg, rivaroxaban ng/ml mean, control (rivaroxaban alone) group, mean of rats 13-18, time 4): 0.238 µg/mL
